# Where “and” joins values, the source holds several entries; their conditions need not be identical. Equal entries are not always repeated. Calls of active or inactive are those of the source.
# Tests used:
# [1] = biological target: Serine/threonine-protein phosphatase PP1-alpha catalytic subunit (Homo sapiens, UniProt P62136); assay: PP1 phosphatase inhibitors, dose response, biochemical, fluorescence (AID 2394)
# [2] = biological target: Serine/threonine-protein phosphatase (Homo sapiens, UniProt Q9BPW0); assay: PP5 phosphatase inhibitors, dose response, biochemical, fluorescence (AID 2395)
# [3] = Artemis endonuclease inhibitor potency, dose response, biochemical, fluorescence intensity (AID 720701); format: functional;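 further: Artemis endonuclease enzyme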
# NADPH oxidase 1 [4] = biological target: T1, NADPH oxidase 1 (Homo sapiens, UniProt Q9Y5S8); format: functional, cell-based
# NADPH oxidase 1 [5] = biological target: T1, NADPH oxidase 1; assay: Late-stage luminescence-based cell-based dose response assay to identify inhibitors of NADPH oxidase 1 (NOX1): Purchased analogs 2.; format: functional
# [6] = biological target: T2, Sphingosine 1-phosphate receptor 2 (Homo sapiens, UniProt O95136); assay: Dose Response Cell-Based Assay for Agonists of the Sphingosine 1-Phosphate Receptor 2 (S1P2): Purchased Analogues. [Related pubchem assays: 1192, 373, 439 ]; format: functional
# [7] = biological target: Sphingosine 1-phosphate receptor 1 (Homo sapiens, UniProt P21453); assay: Dose Response Cell-Based Assay for Agonists of the Sphingosine 1-Phosphate Receptor 1 (S1P1): Purchased Analogues. [Related pubchem assays: 1192, 373, 439 ]; format: functional
# [8] = biological target: Sphingosine 1-phosphate receptor 3 (Homo sapiens, UniProt Q99500); assay: Dose Response Cell-Based Assay for Agonists of the Sphingosine 1-Phosphate Receptor 3 (S1P3): Purchased Analogues. [Related pubchem assays: 373, 439 ]; format: functional
# [9] = biological target: 5-hydroxytryptamine receptor 1A (Homo sapiens, UniProt P08908); format: functional
# [10] = biological target: T2, Sphingosine 1-phosphate receptor 2; assay: Dose Response Cell Based Assay for Antagonists of the S1P2 Receptor. [Related pubchem assays: 856, 736 ]; format: functional
# [11] = cytotoxicity in HPDE-C7 cells, cell-based, fluorescence, HTS (AID 430); format: functional; conditions: Homo sapiens
# [12] = cytotoxicity in KRAS-transformed pancreatic duct cells, primary screen, cell-based, fluorescence, HTS (AID 431); format: functional; conditions: Homo sapiens;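 further: cell line used: HPDE-C7K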
# INS1 = assay: beta cell apoptosis inhibitors, cytokine rescue, dose response, luminescence, retest (AID 449756); format: functional, cell-based; conditions: Rattus norvegicus;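 further: cell death triggered by IL-1 beta plus TNF-alpha plus IFN-gamma mixture; protective hits raise ATP signal compared with cytokine alone wells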
# [13] = inhibitors of HIV Env-driven cell fusion, dose response, cherry-pick (AID 652057); format: functional, cell-based
# [14] = CEM21 lymphoblast cell cytotoxicity, dose response, cytotoxicity control for viral fusion inhibitor project, CellTiter-Glo luminescence, cherry-picked (AID 652042); format: functional, cell-based;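 further: potency for signal decrease meaning cytotoxicity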
# [15] = ZM109 Env clade C HIV-1 fusion inhibitors, dose response, HeLa effector, CEM target cells, luciferase, cherry-pick (AID 652058); format: functional, cell-based
# [16] = inhibitors of clade B AD8 Env fusion, dose response, cell-based, cherry-pick (AID 652062); format: functional;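 further: luciferase signal from cell-cell fusion driven by HIV-1 clade B AD8 Env; potency is for inhibitors of fusion seen as a drop in luminescence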
# [17] = biological target: T3, COUP transcription factor 2 (Homo sapiens, UniProt P24468); assay: Luminescence-based cell-based high throughput dose response assay to identify inhibitors of COUP-TFII (NR2F2).; format: functional;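 further: HEK293 cells transiently cotransfected with COUP-TFII expression vector and reporter; luciferase reporter luminescence driven by COUP-TFII from the pX2-168 reporter plasmid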
# T3 sequence (P24468 whole entry): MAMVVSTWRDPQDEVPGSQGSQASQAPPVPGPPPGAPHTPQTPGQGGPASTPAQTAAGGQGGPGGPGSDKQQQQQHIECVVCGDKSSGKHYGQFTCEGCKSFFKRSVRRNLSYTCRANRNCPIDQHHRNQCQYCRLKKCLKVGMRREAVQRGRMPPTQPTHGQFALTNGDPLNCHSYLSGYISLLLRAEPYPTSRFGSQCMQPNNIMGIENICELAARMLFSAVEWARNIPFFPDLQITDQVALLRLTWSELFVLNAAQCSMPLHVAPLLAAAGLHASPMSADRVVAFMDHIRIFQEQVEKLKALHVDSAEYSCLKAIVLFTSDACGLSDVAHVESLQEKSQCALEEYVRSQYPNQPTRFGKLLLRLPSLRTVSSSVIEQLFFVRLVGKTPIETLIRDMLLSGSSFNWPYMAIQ
# [18] = HIV Env cell-cell fusion inhibitors, dose response, HIV entry, plate reader, dry powder (AID 687023); format: functional, cell-based
# [19] = CEM21 cell cytotoxicity, dose response, cytotoxicity control, plate reader, dry powder (AID 687026); format: functional, cell-based
# [20] = biological target: Voltage-gated inwardly rectifying potassium channel KCNH2 (Homo sapiens, UniProt Q12809); assay: hERG protection from proarrhythmic block, potency, dose response, cell-based, thallium flux (AID 2121); format: ADME
# [21] = biological target: T4, Rac GTPase-activating protein 1 (Homo sapiens, UniProt Q9H0H5); assay: MgcRacGAP GTPase-activating activity inhibitors, confirmation, biochemical, ADP Hunter fluorescence, primary and confirmatory (AID 624330); format: functional
# T4 sequence (Q9H0H5 whole entry): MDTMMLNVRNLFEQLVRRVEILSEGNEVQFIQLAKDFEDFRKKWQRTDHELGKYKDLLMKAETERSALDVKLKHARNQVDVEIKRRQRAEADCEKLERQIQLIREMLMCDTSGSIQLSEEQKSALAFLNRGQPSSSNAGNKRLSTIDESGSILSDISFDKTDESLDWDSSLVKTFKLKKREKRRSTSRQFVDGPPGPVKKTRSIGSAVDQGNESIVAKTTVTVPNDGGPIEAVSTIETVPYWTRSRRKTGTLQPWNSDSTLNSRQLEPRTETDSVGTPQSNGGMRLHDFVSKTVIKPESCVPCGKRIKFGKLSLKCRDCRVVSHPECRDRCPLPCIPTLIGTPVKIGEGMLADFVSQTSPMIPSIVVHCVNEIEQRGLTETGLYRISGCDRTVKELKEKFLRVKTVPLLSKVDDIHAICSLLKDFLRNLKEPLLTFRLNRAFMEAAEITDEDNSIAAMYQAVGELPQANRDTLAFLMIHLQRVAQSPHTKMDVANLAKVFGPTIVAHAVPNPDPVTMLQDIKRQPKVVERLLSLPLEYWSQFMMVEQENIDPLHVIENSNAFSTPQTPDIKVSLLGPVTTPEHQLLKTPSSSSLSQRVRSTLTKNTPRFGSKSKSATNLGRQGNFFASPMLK
# [22] = biological target: T5, Neuropeptide Y receptor type 2 (Homo sapiens, UniProt P49146); assay: NPY-Y2 antagonist potency, selectivity check, dose response, counter-screen for NPY-Y1 antagonist project, cell-based (AID 1278); format: functional
# T5 sequence (P49146 whole entry): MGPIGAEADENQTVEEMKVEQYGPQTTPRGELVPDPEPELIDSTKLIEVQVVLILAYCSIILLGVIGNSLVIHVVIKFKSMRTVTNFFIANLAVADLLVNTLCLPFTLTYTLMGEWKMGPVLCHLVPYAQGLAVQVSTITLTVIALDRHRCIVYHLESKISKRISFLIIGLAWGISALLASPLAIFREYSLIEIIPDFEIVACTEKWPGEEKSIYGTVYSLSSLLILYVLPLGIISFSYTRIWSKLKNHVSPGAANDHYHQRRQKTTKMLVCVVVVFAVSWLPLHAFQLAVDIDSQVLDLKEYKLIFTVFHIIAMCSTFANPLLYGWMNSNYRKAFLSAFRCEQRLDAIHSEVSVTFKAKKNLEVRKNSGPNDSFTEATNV
# [23] = biological target: Solute carrier family 12 member 2/member 5 (Homo sapiens, UniProt P55011+Q9H2X9); assay: KCC2 and NKCC1 inhibition by rubidium flux, cell-based, NKCC1 counter-screen (AID 1734); format: functional, HEK293
# Protein Tat = Protein Tat (Human immunodeficiency virus type 1 group M subtype B (isolate HXB2)(HIV-1), UniProt P04608); format: functional;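 further: tat binding to TAR RNA read out by fluorescence polarization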
# [24] = biological target: Aryl hydrocarbon receptor (Homo sapiens, UniProt P35869); assay: Luminescence-based cell-based high throughput dose response assay for activators of the Aryl Hydrocarbon Receptor (AHR). [Related pubchem assays: 2796 (Primary screen (AHR activators in singlicate)), 2845 (Confirmation screen (AHR activators in triplicate)), 434939 (Counterscreen (PXR activators in triplicate)), 2804 (Summary (AHR activators))]; format: ADME
# Cytochrome P450 2D6 = Cytochrome P450 2D6 (Homo sapiens, UniProt P10635);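 further: CYP2D6 member of a cytochrome P450 panel assay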
# Cytochrome P450 3A4 = Cytochrome P450 3A4 (Homo sapiens, UniProt P08684);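 further: CYP3A4 tested as one member of a cytochrome P450 panel screen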
# [25] = P. falciparum 3D7-ScDHODH growth inhibitors, dose response, SYBR Green, dry powder samples (AID 1159570); format: functional, cell-based;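 further: parasite growth measured after 72 hours of compound exposure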
# [26] = P. falciparum Dd2 growth inhibitors, dose response, SYBR Green, dry powder samples, set 9 (AID 1159568); format: functional, cell-based
# [27] = P. falciparum Dd2 growth inhibitors, dose response, SYBR Green, cherry-picked samples (AID 1159567); format: functional, cell-based
# [28] = P. falciparum Dd2 growth inhibitors, dose response, SYBR Green, dry powder samples (AID 1159566); format: functional, cell-based;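 further: potency for growth inhibition with lower SYBR green DNA signal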
# [29] = HepG2 cell cytotoxicity, dose response, cytotoxicity control, cherry-picked samples (AID 1159577); format: functional, cell-based
# [30] = Plasmodium falciparum Dd2 Sybr green parasite growth Measured in Cell-Based and Microorganism Combination System Using Plate Reader - 2153-01_Inhibitor_Dose_DryPowder_Activity_Set3.; format: functional
# [31] = P. falciparum ATP4 D1247Y mutant growth inhibitors, dose response, NITD609-resistant line, SYBR Green, dry powder (AID 1159571); format: functional, cell-based;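 further: parasites synchronized at ring stage by sorbitol before testing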
# [32] = HeLa 2N DNA content increase, dose response, cell-based, IC50 (AID 1117349); format: functional
# [33] = Dose-response inhibition of insulin secretion in a rat insulinoma line at 5 mM glucose (AID 1117331); format: functional, cell-based; conditions: INS-1E
# cells = format: functional, cell-based; conditions: INS-1E
# [34] = HeLa 4N DNA content increase, dose response, cell-based, IC50 (AID 1117351); format: functional
# [35] = Concentration-dependent survival of SW480 colon cancer line, luminescence detection with CellTiter-Glo, half-maximal inhibitory concentration (AID 1117338); format: functional
# [36] = RKO cell viability reduction, dose response, CellTiter-Glo luminescence (AID 1117322); format: functional
# [37] = cytotoxicity toward HCT116 cells – cell-based, CellTiter-Glo luminescence, IC50, dose response (AID 1117332); format: functional; conditions: HCT-116
# [38] = SNU-C1 cell viability reduction, dose response, CellTiter-Glo luminescence (AID 1117323); format: functional, cell-based
# [39] = cytotoxicity toward Colo320 cells – cell-based, CellTiter-Glo luminescence, IC50, dose response (AID 1117334); format: functional; conditions: COLO 320
# [40] = cytotoxicity toward HT-29 cells – cell-based, CellTiter-Glo luminescence, IC50, dose response (AID 1117330); format: functional
# [41] = CellTiter-Glo luminescent dose response of DLD-1 viability loss (AID 1117352); format: functional
# T1 sequence (Q9Y5S8 whole entry): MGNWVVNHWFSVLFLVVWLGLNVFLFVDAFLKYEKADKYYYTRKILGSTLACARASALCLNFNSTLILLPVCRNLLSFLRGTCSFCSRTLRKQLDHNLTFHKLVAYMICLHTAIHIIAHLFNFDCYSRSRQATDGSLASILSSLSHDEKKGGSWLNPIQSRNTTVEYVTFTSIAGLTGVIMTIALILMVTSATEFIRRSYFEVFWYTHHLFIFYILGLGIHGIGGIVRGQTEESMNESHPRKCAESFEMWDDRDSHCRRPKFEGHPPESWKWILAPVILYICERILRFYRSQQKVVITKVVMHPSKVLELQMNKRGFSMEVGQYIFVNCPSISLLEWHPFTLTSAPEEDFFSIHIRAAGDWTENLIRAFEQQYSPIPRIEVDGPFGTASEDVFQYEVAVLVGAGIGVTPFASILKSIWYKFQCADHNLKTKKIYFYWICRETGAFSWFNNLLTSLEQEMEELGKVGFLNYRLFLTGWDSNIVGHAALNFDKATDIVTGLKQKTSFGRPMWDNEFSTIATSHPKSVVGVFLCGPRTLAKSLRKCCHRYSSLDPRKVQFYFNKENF
# T2 sequence (O95136 whole entry): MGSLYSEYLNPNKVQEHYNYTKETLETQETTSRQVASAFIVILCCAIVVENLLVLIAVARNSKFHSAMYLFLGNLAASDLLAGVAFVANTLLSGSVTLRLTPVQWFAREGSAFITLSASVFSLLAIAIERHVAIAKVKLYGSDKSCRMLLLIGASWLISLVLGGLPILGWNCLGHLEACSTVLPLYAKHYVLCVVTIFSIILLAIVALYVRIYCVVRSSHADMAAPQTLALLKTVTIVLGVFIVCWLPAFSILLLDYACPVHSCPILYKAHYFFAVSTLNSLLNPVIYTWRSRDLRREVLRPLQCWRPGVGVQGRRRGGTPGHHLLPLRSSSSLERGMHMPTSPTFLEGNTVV
# Sequence of Serine/threonine-protein phosphatase PP1-alpha catalytic subunit (P62136 whole entry): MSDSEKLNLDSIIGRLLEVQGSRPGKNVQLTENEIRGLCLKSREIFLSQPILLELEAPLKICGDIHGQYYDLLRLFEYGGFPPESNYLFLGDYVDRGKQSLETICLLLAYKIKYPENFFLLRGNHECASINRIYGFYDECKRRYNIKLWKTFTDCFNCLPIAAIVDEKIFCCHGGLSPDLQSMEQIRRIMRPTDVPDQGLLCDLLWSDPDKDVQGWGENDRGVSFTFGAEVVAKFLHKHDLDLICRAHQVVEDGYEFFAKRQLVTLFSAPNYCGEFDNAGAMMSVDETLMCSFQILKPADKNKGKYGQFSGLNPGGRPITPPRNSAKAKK
# Sequence of Sphingosine 1-phosphate receptor 1 (P21453 whole entry): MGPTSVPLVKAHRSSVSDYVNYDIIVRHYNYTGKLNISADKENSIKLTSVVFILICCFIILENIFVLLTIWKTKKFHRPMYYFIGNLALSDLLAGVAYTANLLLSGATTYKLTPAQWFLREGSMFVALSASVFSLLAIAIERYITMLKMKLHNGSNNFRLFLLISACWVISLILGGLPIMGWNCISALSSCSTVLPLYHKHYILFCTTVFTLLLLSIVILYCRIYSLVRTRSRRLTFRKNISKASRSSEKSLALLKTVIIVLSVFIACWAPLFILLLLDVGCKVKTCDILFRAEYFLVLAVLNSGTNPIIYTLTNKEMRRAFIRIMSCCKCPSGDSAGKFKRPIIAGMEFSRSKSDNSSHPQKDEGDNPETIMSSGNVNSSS
# Sequence of 5-hydroxytryptamine receptor 1A (P08908 whole entry): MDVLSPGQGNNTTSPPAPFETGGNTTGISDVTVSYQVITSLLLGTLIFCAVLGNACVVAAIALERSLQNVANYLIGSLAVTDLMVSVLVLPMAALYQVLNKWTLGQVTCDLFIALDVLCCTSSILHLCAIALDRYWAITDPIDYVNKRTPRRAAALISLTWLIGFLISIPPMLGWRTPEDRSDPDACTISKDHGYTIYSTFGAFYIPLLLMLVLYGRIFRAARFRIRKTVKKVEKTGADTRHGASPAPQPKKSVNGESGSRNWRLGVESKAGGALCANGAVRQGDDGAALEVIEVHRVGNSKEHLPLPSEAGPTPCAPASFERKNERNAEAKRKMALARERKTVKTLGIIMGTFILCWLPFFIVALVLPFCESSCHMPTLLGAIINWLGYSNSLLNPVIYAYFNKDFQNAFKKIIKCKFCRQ
# Sequence of Cytochrome P450 3A4 (P08684 whole entry): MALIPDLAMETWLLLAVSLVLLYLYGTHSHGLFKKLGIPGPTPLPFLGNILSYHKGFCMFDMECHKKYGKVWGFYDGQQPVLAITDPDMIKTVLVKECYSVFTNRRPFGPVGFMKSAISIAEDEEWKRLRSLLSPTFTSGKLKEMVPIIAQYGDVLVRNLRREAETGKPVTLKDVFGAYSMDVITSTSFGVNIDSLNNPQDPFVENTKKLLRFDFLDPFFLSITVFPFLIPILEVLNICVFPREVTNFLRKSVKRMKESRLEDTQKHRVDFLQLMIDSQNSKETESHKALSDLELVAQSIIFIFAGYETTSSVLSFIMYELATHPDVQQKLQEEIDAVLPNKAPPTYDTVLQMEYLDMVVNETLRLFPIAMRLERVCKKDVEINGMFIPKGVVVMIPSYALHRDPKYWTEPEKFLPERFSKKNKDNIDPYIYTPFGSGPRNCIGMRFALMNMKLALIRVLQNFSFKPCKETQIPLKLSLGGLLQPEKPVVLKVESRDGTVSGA
# Sequence of Voltage-gated inwardly rectifying potassium channel KCNH2 (Q12809 whole entry): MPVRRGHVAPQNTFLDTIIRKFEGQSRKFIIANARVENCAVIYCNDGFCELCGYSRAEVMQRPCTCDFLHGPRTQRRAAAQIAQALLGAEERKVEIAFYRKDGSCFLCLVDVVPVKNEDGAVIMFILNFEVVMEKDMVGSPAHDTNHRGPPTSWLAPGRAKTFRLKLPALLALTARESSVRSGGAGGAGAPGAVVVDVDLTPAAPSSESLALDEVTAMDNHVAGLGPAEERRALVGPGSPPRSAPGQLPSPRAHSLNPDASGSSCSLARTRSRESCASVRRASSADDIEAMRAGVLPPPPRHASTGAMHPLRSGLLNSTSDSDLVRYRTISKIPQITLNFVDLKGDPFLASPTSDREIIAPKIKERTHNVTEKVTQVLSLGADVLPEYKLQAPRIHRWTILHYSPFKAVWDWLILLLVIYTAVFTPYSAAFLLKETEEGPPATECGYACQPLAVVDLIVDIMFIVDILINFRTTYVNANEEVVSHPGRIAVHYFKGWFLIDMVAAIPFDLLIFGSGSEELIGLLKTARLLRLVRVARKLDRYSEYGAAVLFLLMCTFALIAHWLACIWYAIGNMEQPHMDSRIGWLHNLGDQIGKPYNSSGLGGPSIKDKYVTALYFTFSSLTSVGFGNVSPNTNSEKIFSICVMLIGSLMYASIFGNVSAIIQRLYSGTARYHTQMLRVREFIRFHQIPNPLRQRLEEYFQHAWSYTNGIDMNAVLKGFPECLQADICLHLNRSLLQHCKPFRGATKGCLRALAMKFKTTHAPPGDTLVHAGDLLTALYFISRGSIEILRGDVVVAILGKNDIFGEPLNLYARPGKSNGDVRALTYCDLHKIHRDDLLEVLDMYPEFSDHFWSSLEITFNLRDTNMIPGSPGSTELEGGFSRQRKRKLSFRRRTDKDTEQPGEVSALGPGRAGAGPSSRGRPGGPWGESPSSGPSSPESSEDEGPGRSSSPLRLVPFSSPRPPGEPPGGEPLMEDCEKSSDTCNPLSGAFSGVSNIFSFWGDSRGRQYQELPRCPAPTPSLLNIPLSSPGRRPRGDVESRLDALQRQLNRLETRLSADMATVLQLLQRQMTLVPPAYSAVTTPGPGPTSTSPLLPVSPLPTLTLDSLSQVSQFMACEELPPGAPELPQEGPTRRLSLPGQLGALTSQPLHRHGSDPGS
# Sequence of Serine/threonine-protein phosphatase (Q9BPW0 whole entry): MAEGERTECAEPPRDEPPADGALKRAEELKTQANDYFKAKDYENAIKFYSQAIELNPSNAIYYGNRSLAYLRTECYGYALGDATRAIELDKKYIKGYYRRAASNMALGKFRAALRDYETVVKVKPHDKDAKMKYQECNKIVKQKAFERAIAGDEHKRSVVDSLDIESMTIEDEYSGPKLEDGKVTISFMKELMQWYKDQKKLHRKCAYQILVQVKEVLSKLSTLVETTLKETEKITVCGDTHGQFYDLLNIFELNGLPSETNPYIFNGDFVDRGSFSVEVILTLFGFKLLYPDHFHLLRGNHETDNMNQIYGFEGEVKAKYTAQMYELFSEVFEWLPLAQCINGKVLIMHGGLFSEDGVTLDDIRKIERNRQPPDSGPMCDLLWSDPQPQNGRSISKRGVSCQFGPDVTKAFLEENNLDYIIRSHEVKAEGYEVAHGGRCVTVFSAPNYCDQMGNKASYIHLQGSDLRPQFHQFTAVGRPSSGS
# Sequence of Protein Tat (P04608 whole entry): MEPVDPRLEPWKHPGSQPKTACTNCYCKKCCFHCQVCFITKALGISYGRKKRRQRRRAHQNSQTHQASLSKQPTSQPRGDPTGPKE
# Sequence of Cytochrome P450 2D6 (P10635 whole entry): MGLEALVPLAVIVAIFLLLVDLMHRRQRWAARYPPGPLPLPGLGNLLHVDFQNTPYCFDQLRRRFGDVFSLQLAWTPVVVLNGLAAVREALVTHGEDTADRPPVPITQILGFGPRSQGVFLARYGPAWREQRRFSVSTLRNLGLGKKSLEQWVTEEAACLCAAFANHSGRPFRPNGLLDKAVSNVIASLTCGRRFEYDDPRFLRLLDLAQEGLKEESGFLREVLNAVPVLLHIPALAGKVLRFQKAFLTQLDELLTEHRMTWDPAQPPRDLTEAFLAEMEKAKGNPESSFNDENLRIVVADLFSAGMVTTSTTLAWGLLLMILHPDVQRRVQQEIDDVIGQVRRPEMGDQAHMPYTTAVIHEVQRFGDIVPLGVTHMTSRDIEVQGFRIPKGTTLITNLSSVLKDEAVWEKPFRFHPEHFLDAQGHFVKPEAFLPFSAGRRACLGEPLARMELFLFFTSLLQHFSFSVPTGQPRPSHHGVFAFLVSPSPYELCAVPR
structure (smiles),measurement,setting,value
CCCN(CC1CC1)c1nc(N)c2c(N)nc(OC)cc2c1C#N,IC50,[1],> 67 µM (not active)
same,IC50,[2],9.67 µM (active)
same,IC50,[3],> 20 µM (inactive)
O=C(Oc1cccc([N+](=O)[O-])c1)c1sc2ccccc2c1Cl,IC50,NADPH oxidase 1 [4],> 17 µM (not active)
CC(=O)Nc1ccc(/C=N/Nc2ccccc2)cc1,IC50,NADPH oxidase 1 [5],6.22 µM (active)
CCC(C)NC(=O)c1cc(-c2ccc(C)cc2)on1 (configuration not stated),EC50,[6],> 10 µM (not active)
same,EC50,[7],> 50 µM (not active)
same,EC50,[8],> 50 µM (not active)
CCOC(=O)c1c(C)nc(-c2ccccc2)nc1NC(=O)CC,EC50,[9],> 50 µM (not active)
COc1ccc2c(c1)[nH]c1c(N3CCN(Cc4ccc5c(c4)OCO5)CC3)ncnc12,IC50,[10],4.01 µM (active)
same,EC50,[11],16.7 µM (active)
same,EC50,[12],14.8 µM (active)
same,AC50,INS1,2.06 µM (active)
same,AC50,[13],3.89 µM (active)
same,AC50,[14],38 µM (active)
same,AC50,[15],6.42 µM (active)
same,AC50,[16],4.68 µM (active)
same,IC50,[17],6.68 µM (active)
same,AC50,[18],2.72 µM (active) and 5.39 µM (active)
same,AC50,[19],35.8 µM (active) and 32.4 µM (active)
O=[N+]([O-])c1ccccc1OCCNCc1ccccc1,EC50,[20],4.78 µM (active)
same,IC50,[21],153 µM (active)
COc1cccc(Oc2c[nH]nc2-c2ccc(O)cc2O)c1,IC50,[22],> 35 µM (not active)
same,IC50,[21],39.4 µM (active)
Cc1cnc(NC(=O)CSc2nnc(Cc3ccccc3)o2)s1,IC50,[23],19.7 µM (active)
COc1ccccc1NC(=O)CN(Cc1ccco1)C(=O)c1cccs1,IC50,Protein Tat,> 100 µM (inconclusive)
Cc1cc(C)nc(Nc2ncc(O)n2-c2ccccc2)n1,EC50,[24],9.35 µM (active)
same,AC50,Cytochrome P450 2D6,inconclusive
same,AC50,Cytochrome P450 3A4,inconclusive
CCCNC(=O)N1[C@H](C#N)[C@H](c2ccc(-c3ccccc3F)cc2)[C@H]1CO,AC50,[25],14.9 µM (active)
same,AC50,[26],0.0988 µM (active)
same,AC50,[27],< 0.35 µM (active)
same,AC50,[28],0.00986 µM (active)
same,AC50,[29],> 42 µM (inactive)
same,AC50,[30],0.0589 µM (active)
same,AC50,[31],0.0114 µM (active)
CC(CC1c2ccccc2CCc2ccccc21)CN(C)C (configuration not stated) [BUTRIPTYLINE],IC50,[32],> 10 µM (inactive)
same,IC50,[33],3.64 µM (active)
same,IC50,cells,> 33.3 µM (inactive)
same,IC50,[34],> 10 µM (inactive)
CCCCCCOc1ccccc1C(N)=O [EXALAMIDE],IC50,[35],> 20 µM (inactive)
same,IC50,[36],> 6.67 µM (inactive)
same,IC50,[37],> 6.67 µM (inactive)
same,IC50,[38],9.36 µM (inactive)
same,IC50,[39],> 20 µM (inactive)
same,IC50,[40],> 20 µM (inactive)
same,IC50,[41],8.67 µM (inactive)

# — ChEMBL document CHEMBL1201862, “PubChem BioAssay data set” (2004)
